The source made the active and inactive calls.
Assays:
Bcl-2-like protein 10 = molecular target: T1, Bcl-2-like protein 10 (Homo sapiens, UniProt Q9HD36); experiment: Bcl-B/TR3 peptide binding disruption – biochemical, fluorescence polarization, FITC-TR3 peptide, selectivity assay for Bfl-1 inhibitor project, primary screen (AID 748);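 also: fluorescence polarization from a fluorescein-labelled TR3 peptide binding purified Bcl-B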
T1 sequence (Q9HD36 whole entry): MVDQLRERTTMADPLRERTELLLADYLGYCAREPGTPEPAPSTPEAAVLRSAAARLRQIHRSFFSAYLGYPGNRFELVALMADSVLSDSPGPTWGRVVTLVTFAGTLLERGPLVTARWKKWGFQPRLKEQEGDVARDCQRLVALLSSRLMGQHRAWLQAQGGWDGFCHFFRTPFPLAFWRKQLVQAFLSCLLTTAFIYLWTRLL

Estrogen receptor = molecular target: T2, Estrogen receptor (Homo sapiens, UniProt P03372); experiment: ERα coactivator recruitment enhancers – biochemical, TR-FRET, ERα LBD, dose response (AID 737)
T2 sequence (P03372 whole entry): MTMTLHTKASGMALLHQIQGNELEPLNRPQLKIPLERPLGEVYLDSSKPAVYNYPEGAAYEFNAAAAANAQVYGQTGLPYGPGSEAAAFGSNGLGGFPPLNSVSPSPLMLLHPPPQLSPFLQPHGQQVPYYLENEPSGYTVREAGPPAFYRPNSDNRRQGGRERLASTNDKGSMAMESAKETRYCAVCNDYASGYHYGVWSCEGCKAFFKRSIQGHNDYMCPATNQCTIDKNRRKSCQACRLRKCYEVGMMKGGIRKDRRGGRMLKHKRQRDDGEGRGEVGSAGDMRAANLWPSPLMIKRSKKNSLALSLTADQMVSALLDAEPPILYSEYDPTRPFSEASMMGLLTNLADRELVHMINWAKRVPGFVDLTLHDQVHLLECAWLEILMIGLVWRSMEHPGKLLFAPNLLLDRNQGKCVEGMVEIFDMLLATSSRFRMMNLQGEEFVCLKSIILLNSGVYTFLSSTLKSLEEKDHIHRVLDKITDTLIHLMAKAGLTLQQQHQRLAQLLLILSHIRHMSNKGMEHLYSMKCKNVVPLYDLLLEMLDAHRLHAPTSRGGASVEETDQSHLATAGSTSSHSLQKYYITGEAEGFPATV

[1] = molecular target: Peroxisome proliferator-activated receptor gamma/Nuclear receptor coactivator 2 (Homo sapiens, UniProt P37231); type: functional;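 also: agonist potency for raising coactivator recruitment to the receptor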
[2] = molecular target: Peroxisome proliferator-activated receptor gamma/Nuclear receptor coactivator 3 (Homo sapiens, UniProt P37231); type: functional;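 also: agonist potency for raising coactivator recruitment to the receptor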
[3] = molecular target: Peroxisome proliferator-activated receptor gamma/Nuclear receptor coactivator 1 (Homo sapiens, UniProt P37231); type: functional;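 also: agonist potency as compounds enhance coactivator SRC-1 recruitment to PPARgamma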
Estrogen receptor beta [4] = molecular target: T3, Estrogen receptor beta (Homo sapiens, UniProt Q92731); experiment: blockers of SRC-3 recruitment to ERβ – biochemical, ELISA, streptavidin-HRP readout, orthogonal assay, confirmation (AID 1060)
Estrogen receptor beta [5] = molecular target: T3, Estrogen receptor beta
[6] = molecular target: T4, Bifunctional protein GlmU (Mycobacterium tuberculosis, UniProt P9WMN3); experiment: Inhibitors of Mycobacterial Glucosamine-1-phosphate acetyl transferase (GlmU). Secondary screen.; set-up: species or system Mycobacterium tuberculosis H37Rv
T4 sequence (P9WMN3 whole entry): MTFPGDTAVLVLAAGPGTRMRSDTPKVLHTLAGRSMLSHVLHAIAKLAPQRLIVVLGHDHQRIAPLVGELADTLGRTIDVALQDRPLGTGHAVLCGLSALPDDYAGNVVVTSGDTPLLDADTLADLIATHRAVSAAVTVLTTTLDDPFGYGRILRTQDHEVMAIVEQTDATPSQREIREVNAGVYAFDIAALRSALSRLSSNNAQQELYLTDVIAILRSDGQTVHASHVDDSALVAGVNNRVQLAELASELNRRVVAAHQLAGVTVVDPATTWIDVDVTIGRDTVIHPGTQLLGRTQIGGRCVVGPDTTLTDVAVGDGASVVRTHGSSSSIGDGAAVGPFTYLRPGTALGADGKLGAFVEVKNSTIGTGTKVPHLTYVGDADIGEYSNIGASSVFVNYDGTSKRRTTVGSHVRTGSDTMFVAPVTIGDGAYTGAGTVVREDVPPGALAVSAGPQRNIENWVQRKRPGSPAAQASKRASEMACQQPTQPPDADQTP

[7] = HEK-293T cell viability reduction – luminescence, B-cell screen hits, cytotoxicity control for BCR NF-kB inhibitor project, dose response (AID 489021); type: functional, cell-based;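 also: HEK-293T cells carrying an NF-kB luciferase reporter; cells exposed to compound for about 14 hours before viability readout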
Hexokinase HKDC1 = molecular target: T5, Hexokinase HKDC1 (Homo sapiens, UniProt Q2TB90); experiment: inhibition of HKDC1 glucose phosphorylation – biochemical, W721R variant, dose response (AID 504729); type: functional
T5 sequence (Q2TB90 whole entry): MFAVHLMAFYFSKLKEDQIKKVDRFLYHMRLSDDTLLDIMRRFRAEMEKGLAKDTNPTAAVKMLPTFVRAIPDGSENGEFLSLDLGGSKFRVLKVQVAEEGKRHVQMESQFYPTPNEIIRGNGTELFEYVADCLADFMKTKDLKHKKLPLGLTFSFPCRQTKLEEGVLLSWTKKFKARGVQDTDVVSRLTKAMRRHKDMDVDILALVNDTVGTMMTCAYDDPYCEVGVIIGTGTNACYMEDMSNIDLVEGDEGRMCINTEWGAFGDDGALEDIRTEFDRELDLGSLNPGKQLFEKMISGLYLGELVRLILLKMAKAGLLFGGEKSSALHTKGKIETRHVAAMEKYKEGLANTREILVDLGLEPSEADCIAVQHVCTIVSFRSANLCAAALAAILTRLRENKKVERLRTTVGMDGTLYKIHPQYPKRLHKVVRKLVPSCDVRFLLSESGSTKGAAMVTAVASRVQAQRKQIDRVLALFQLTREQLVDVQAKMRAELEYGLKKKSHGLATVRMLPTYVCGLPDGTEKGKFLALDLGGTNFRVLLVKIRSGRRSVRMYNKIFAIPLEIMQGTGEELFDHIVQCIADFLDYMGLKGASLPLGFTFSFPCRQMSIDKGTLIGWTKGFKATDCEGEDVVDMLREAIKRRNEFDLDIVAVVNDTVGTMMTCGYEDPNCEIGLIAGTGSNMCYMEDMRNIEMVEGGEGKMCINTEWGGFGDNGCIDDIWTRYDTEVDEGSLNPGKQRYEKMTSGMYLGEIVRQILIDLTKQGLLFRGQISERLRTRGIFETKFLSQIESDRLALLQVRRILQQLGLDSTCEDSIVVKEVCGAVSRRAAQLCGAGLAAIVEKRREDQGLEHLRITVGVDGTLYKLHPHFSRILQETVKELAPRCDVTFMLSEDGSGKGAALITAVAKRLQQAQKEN

[8] = THP-1 cell cytotoxicity, dose response, cytotoxicity control for non-replicating M. tuberculosis project (AID 489025); type: functional
cells = type: functional

T3 sequence (Q92731 whole entry): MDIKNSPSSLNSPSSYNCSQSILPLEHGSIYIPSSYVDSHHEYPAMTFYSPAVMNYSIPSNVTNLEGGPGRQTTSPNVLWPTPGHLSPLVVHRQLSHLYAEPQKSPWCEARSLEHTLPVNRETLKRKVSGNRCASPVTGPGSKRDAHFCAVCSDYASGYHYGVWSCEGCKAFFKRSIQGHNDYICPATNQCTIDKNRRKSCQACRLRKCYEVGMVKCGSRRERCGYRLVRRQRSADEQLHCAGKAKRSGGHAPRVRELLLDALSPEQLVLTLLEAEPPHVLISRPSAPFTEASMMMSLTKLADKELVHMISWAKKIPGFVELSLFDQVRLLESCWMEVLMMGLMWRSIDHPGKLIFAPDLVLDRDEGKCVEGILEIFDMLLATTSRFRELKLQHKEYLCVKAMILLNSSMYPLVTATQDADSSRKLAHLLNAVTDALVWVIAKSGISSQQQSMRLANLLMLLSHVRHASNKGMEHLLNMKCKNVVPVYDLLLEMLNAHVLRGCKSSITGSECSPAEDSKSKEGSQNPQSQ
Peroxisome proliferator-activated receptor gamma/Nuclear receptor coactivator 1, sequence (P37231 whole entry): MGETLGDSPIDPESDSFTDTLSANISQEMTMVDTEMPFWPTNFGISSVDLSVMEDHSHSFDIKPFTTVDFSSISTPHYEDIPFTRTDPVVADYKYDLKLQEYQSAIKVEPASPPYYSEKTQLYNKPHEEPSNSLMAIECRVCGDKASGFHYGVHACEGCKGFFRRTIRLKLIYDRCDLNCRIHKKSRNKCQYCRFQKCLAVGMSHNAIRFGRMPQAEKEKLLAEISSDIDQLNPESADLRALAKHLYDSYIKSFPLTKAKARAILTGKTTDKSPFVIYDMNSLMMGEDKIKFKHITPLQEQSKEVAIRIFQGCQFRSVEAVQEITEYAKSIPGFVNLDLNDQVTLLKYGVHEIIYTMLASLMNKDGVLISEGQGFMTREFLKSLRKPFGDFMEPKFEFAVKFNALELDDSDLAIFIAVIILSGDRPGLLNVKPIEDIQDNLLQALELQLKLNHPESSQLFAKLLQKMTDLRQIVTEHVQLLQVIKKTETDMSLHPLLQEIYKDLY
Peroxisome proliferator-activated receptor gamma/Nuclear receptor coactivator 1, sequence (Q15788 whole entry, further chain): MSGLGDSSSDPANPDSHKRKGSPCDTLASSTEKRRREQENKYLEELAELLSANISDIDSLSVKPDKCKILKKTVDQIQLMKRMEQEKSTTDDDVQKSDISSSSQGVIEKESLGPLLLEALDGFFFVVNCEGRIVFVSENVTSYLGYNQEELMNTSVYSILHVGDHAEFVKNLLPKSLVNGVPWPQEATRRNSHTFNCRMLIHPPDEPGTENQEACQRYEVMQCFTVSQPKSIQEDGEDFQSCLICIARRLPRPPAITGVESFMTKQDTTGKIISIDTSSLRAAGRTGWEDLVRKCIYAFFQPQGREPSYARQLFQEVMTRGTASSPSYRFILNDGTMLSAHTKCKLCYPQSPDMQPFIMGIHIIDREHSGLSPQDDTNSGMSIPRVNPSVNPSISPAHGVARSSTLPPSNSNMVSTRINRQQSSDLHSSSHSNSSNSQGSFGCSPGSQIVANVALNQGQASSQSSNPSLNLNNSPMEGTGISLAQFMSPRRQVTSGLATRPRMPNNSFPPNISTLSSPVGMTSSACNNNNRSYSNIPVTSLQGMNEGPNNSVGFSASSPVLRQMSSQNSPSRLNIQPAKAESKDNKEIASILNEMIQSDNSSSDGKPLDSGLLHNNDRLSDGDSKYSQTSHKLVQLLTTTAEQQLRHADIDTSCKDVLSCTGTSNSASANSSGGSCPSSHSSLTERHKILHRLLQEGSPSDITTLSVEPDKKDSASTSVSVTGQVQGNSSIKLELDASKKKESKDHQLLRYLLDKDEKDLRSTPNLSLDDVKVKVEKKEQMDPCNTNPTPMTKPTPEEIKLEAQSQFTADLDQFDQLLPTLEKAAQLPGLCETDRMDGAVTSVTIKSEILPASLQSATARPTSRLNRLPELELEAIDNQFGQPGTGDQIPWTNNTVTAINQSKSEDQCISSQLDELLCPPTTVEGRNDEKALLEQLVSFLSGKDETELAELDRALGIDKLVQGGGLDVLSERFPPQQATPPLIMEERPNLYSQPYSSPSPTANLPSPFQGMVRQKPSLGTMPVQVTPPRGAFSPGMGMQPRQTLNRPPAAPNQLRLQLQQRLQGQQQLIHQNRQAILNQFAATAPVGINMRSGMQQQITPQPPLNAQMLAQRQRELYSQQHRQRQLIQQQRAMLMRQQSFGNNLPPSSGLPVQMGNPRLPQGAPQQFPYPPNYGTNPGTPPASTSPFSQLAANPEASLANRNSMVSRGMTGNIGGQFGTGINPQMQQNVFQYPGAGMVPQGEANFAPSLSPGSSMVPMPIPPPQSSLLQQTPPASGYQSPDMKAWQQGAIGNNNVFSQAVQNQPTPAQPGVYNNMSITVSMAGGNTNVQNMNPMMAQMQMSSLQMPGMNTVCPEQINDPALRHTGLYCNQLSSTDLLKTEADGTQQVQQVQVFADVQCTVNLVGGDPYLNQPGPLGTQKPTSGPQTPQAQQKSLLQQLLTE
Peroxisome proliferator-activated receptor gamma/Nuclear receptor coactivator 3, sequence (P37231 whole entry): as the sequence (P37231 whole entry) above
Peroxisome proliferator-activated receptor gamma/Nuclear receptor coactivator 3, sequence (Q9Y6Q9 whole entry, further chain): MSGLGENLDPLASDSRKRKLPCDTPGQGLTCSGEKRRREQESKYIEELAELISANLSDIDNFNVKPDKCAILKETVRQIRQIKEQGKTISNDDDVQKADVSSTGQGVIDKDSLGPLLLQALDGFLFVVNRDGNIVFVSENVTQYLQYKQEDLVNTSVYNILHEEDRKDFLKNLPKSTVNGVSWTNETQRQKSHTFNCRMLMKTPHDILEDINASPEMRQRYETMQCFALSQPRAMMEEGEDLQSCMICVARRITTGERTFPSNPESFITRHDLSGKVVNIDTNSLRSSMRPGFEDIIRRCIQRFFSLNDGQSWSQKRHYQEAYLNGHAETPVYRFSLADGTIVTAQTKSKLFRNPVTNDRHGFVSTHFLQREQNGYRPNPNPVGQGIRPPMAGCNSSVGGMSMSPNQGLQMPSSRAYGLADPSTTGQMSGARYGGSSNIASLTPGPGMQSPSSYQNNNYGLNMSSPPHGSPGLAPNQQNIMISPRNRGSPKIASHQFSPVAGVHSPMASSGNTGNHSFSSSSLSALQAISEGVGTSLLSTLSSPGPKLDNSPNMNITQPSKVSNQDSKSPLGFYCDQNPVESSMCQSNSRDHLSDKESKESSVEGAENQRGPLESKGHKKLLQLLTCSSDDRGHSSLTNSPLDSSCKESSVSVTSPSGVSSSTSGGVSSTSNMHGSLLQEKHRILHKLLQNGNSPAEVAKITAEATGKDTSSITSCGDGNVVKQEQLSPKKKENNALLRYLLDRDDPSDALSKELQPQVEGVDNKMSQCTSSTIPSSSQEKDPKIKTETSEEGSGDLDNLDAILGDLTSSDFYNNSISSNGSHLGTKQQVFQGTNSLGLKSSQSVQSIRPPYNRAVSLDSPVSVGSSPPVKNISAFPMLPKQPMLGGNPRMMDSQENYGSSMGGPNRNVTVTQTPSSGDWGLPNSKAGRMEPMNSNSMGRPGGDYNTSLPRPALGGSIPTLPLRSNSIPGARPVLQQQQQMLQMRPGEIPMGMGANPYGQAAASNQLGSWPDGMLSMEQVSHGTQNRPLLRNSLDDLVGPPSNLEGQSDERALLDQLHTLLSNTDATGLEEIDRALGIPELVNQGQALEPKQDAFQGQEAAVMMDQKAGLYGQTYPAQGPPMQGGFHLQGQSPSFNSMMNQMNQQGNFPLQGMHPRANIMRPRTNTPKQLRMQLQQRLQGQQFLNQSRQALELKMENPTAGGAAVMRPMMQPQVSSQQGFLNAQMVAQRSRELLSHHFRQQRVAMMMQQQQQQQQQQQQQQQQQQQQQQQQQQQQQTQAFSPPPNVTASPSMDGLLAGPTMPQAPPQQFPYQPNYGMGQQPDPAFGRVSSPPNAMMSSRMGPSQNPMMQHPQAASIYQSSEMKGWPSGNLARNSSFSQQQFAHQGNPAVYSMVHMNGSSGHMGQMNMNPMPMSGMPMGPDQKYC

SMILES: CC(=O)C1=C(C)OC(N)=C(C#N)C1c1ccco1 (stereo unspecified)
- IC50 (Bcl-2-like protein 10): > 6.25 µM (inactive)

SMILES: C[C@]12CC[C@@H]3c4ccc(O)cc4[C@@H](O)C[C@H]3[C@@H]1CC[C@@H]2O
- EC50 (Estrogen receptor): 12.7 µM (active)

SMILES: O=S1(=O)CC2N=C(N(Cc3ccc(F)cc3Cl)c3ccccc3F)SC2C1 (stereo unspecified)
- EC50 [1]: > 79.4 µM (not active)
- EC50 [2]: > 79.4 µM (not active)
- EC50 [3]: > 79.4 µM (not active)

SMILES: CSc1nc2n(n1)C(c1ccccn1)C1=C(O)CC(C)(C)CC1=N2 (stereo unspecified)
- IC50 (Bcl-2-like protein 10): > 100 µM (inactive)

SMILES: Cc1ccc(C)n1-c1sccc1C(=O)O
- IC50 (Bcl-2-like protein 10): 0.783 µM (active)
- IC50 (Estrogen receptor beta [4]): 6.1 µM (not active)
- IC50 (Estrogen receptor beta [5]): 4.48 µM (active)
- IC50 [6]: 46.9 µM (active)

SMILES: CCOC(=O)C(C)Oc1cccc2c(=O)n(CC(=O)Nc3ccc4c(c3)OCCO4)ccc12 (stereo unspecified)
- EC50 (Estrogen receptor): 12.6 µM (not active)

SMILES: O=C(Oc1cccc(-c2cnc3ccccc3n2)c1)c1ccco1
- EC50 (Estrogen receptor): 26.9 µM (active)

SMILES: Cc1ccc(C(=O)OCC(=O)N(CC(C)C)c2c(N)n(Cc3ccccc3)c(=O)[nH]c2=O)o1
- IC50 [7]: > 80 µM (inactive)

SMILES: Cc1ccc2cc(CCNC(=O)c3ccc(S(=O)(=O)N4CCCCC4)cc3)c(O)nc2c1
- IC50 (Hexokinase HKDC1): 8.17 µM (active)

SMILES: CCCCCCn1c(=O)c(C(=O)Nc2nnc(C)s2)c(O)c2ccccc21
- CC50 [8]: > 40 µM (active)
- IC50 (cells): 22.6 µM (active)

Source: ChEMBL document CHEMBL1201862, “PubChem BioAssay data set” (2004)
